Results on two compounds are retold here after US20240409934A1, “FOXO1-TARGETED THERAPY FOR THE TREATMENT OF CANCER” (BOARD OF REGENTS, THE UNIVERSITY OF TEXAS SYSTEM, priority 2021, published 2024).

What all share (assay type): cell-based
For one assay, the system named is BT549 cells. Kind of assay: Gene expression by qRT-PCR (TUBB reference). The protocol: (§1) Cell culture and drug treatments. Cell lines were obtained from ATCC (American Type Culture Collection, Manassas, VA) and grown under standard conditions (5% CO2, 10% FBS (fetal bovine serum), with 5% antifungal/antibacterial). Cell lines were tested for Mycoplasma using the MycoAlert Mycoplasma Detection Kit (Lonza, Basel Switzerland, cat: LT07-218); all experiments were done with mycoplasma negative cells. U87MG cells were propagated in MEM (Minimal Essential Medium). BT549 and DBTRG cells were propagated in RPMI (Roswell Park Memorial Institute 1640 Medium). LN18, U118MG, A172 and LN229 cells were propagated in DMEM (Dulbecco's Modified Eagle Medium). Neurosphere/cancer stem cell cultures for U87MG and BT549 cell lines were plated with 40,000 cells per mL in 3D Tumorsphere Medium XF (Sigma cat: C-28070, Burlington, MA). BT549 cancer stem cell cultures were supplemented with 1XB27 XenoFree CTS (Gibco/Thermo Fisher Waltham, MA, USA). AS1842856 was purchased from Calbiochem (Danvers, MA) and utilized at 200 nM, 500 nM and 1 μM final concentrations as indicated. AS1708727 was purchased from MedChem Express (Monmouth Junction, NJ) and was used at 0.5 μM, 1.0 µM and 2.0 μM concentrations. 5-aza-2'-deoxycytidine (5-AZA) was purchased from Millipore/Sigma (Burlington, MA) and utilized at a final concentration of 3 μM. Total RNA was prepared using the Qiagen RNeasy kit (Hilden, Germany), which was then used to generate cDNA using Superscript Reverse Transcriptase II (Invitrogen, Carlsbad, CA). Samples (cDNAs) were analyzed using (Power SYBR Green Master Mix, Applied Biosystems, Foster City, CA) and the ABI Step-One Real-time system (Carlsbad, CA). Expression levels were normalized to Beta-Tubulin, TUBB in gene expression experiments and calculated using 2-4ACT method (Livak et al., 2001). Primer sequences are detailed in Table 1. MDA-MB-468 cells were grown to log phase in DMEM with 10% FBS without antibiotics. BT549 cells were grown to log phase in DMEM with 10% FBS without antibiotics. Cells were transfected with FOXO1 esiRNA (EHU156591 Sigma, St. Louis, MO) or EGFP control esiRNA (EHUEGFP) using Lipofectamine 3000 (utilized only […] reagent, Invitrogen, Carlsbad, CA).
A general note: In qPCR the cycle at which signal appears reflects the starting amount.

For another assay, the system named is MDA-MB-468 cells. Kind of assay: Gene expression by qRT-PCR (TUBB reference). The protocol:
as §1

For the next assay, the system named is MDA-MB-468. As to the kind of experiment: Colony formation assay (crystal violet). Particulars: treated five days.
A further assay relates to LN18. Kind of assay: Colony formation assay (crystal violet). Particulars: treated five days. As to the method: (§2) Cell culture and drug treatments. Cell lines were obtained from ATCC (American Type Culture Collection, Manassas, VA) and grown under standard conditions (5% CO2, 10% FBS (fetal bovine serum), with 5% antifungal/antibacterial). Cell lines were tested for Mycoplasma using the MycoAlert Mycoplasma Detection Kit (Lonza, Basel Switzerland, cat: LT07-218); all experiments were done with mycoplasma negative cells. U87MG cells were propagated in MEM (Minimal Essential Medium). BT549 and DBTRG cells were propagated in RPMI (Roswell Park Memorial Institute 1640 Medium). LN18, U118MG, A172 and LN229 cells were propagated in DMEM (Dulbecco's Modified Eagle Medium). Neurosphere/cancer stem cell cultures for U87MG and BT549 cell lines were plated with 40,000 cells per mL in 3D Tumorsphere Medium XF (Sigma cat: C-28070, Burlington, MA). BT549 cancer stem cell cultures were supplemented with 1XB27 XenoFree CTS (Gibco/Thermo Fisher Waltham, MA, USA). AS1842856 was purchased from Calbiochem (Danvers, MA) and utilized at 200 nM, 500 nM and 1 μM final concentrations as indicated. AS1708727 was purchased from MedChem Express (Monmouth Junction, NJ) and was used at 0.5 μM, 1.0 µM and 2.0 μM concentrations. 5-aza-2′-deoxycytidine (5-AZA) was purchased from Millipore/Sigma (Burlington, MA) and utilized at a final concentration of 3 μM. Cells were plated at a density of 2,700 cells per mL and were treated five days with indicated drug. Treatments were investigated in triplicate (in numerous independent experiments) and stained with crystal violet. Plates were aspirated of media then each well was washed with 1.0 mL of 1x phosphate buffered saline (PBS) once before being stained with 1.0 mL of crystal violet stain (0.5% crystal violet in buffered formalin) and incubated for 15 minutes. The stain was aspirated, and wells were washed 3 times with 0.5 mL of 1x PBS. After collections were completed, crystal violet-stained plates were solubilized using 0.5 mL on each well of 10% acetic acid and placed on shaker for 1 hour. Solubilized samples were transferred to 96 well plates and quantified on a spectrophotometer at 590 nm. Quantified plates were analyzed with a Tukey test. Error bars were added using the standard deviation. Cells were plated at 2,700 cells per mL and were treated five days with the indicated drug. Treatments were investigated in triplicate (in numerous independent experiments) and stained with crystal violet. Plates were aspirated of media, then each well was washed with 1.0 mL of 1× phosphate-buffered saline (PBS) once before being stained with 1.0 mL of crystal violet stain (0.5% crystal violet in buffered formalin) and incubated for 15 minutes. The stain was aspirated, and cells were washed three times with 0.5 mL of 1×PBS. After collections were completed, crystal violet-stained plates were solubilized using 0.5 mL on each well of 10% acetic acid and placed on a shaker for 1 hour. Solubilized samples were transferred to 96 well plates and quantified on a spectrophotometer at 590 nm using iMark Microplate Absorbance Reader (Bio-Rad, Hercules, CA). Quantified plates were analyzed with a Tukey Test. Error bars were added using the standard deviation.

A further assay has as its system BT549. As to the kind of experiment: Colony formation assay (crystal violet). As to conditions: treated five days. As to the method:
as §2

Turning to `Nc1ncn([C@H]2C[C@H](O)[C@@H](CO)O2)c(=O)n1` [5-AZA, 5-aza-2′-deoxycytidine], in the assay with BT549 cells (3 μM for 48 hours), the “FAS and BIM expression” value is “induced FAS and BIM”.

Consider `CN(C(=O)CC1CCCC1)c1ccc(Cl)c(COc2cccc3cnccc23)c1Cl` [AS1708727, 2-cyclopentyl-N-[2,4-dichloro-3-(isoquinolin-5-yloxymethyl)phenyl] N-methylacetamide], for which the “FAS and BIM gene induction, comparison of the two inhibitors” value in the assay on BT549 cells and in the assay with MDA-MB-468 cells was “only induced the FAS gene” each time. The FAS gene expression result in the assay on BT549 cells (1 μM treatment for 4 days) is recorded as “increased FAS gene expression”; in the assay on MDA-MB-468 cells (four days, 1 μM for two days), “increased FAS gene expression”. Besides, the colony formation entry with MDA-MB-468, in the assay on LN18 and with BT549 was “reduced colony formation” in each case.
